Experimental data: article PMC6273913, “New α-Methylene-γ-Butyrolactone Derivatives as Potential Fungicidal Agents: Design, Synthesis and Antifungal Activities” (Molecules, 2016)
Like-named read-outs stand apart in the source and are kept apart here.

Legend:
HepG2 cell line = assay: Cytotoxic activity against human tumor cells line (HepG2); assay type: cell-based
C. lagenarium = assay: Spore germination assay, fungicidal activity against C. lagenarium; assay type: cell-based, Colletotrichum lagenarium; conditions: Colletotrichum orbiculare
Protocol: (§1) The fungal pathogens C. lagenarium and B. cinerea was provided by the Agricultural Culture Collection of China (Yangling, Shaanxi, China). C. lagenarium was cultured for 2 weeks at 25 ± 1 °C on potato dextrose agar (PDA) while B. cinerea was cultured at 20 °C on the same medium after being retrieved from the storage tube. Plates were flooded with sterile distilled water, and then conidia were scraped with a glass rod. Mycelial debris was removed by filtration. The spores were harvested and suspended in sterile distilled water containing 0.1% (v/v) Tween 20. The concentration of the spore suspension was adjusted to 1.0 × 10^6 spores/mL with sterilized distilled water following.
(§2) The tested samples (10.0 mg) dissolved in acetone (0.1 mL) were diluted with sterile distilled water to prepare 10.0 mL stock solution, which was further diluted to prepare test solutions in which the final concentration of acetone was <1% (v/v). A series of concentrations of tested samples and one control (1% acetone with sterile distilled water) were separately tested for spore germination of C. lagenarium or B. cinerea. The samples were inoculated with spore suspension of C. lagenarium or B. cinerea containing 1.0 × 10^6 spores/mL. Aliquots of 10 μL of prepared spore suspension were placed on separate glass slides in triplicate. Slides containing the spores were incubated in a moisture chamber at 25 °C for 6~8 h. Each slide was then observed under the microscope for spore germination. Spores were considered to have germinated if the length of the germ tube was at least half the length of the spore. Afterward, spore germination was stopped by applying a drop of lactophenol-cotton blue to the inoculation sites on plates. The numbers of generated spores were counted under a microscope (Olympus BX61, Tokyo, Japan), and the percentage of germinated spores was calculated. Chlorothalonil was used as the positive control.

B. cinerea = assay: Spore germination assay, fungicidal activity against B. cinerea; assay type: cell-based, Botrytis cinerea; conditions: Botrytis cinerea, in vitro, n = 3
Protocol: as §1, §2

[1] = Table 1, from IC50 in μM, read-out: pIC50, C. lagenarium (converted)
[2] = Table 6, read-out: IC50 (μM) (against C. lagenarium)
[3] = in vitro, spore germination, n = 3, read-out: IC50, C. lagenarium
[4] = Table 2, fungicidal activity against C. lagenarium used for QSAR, read-out: pIC50 (converted)
[5] = Table 4, experimental, C. lagenarium, read-out: Exp. pIC50 (converted)

Row | SMILES | IC50 (HepG2 cell line) | IC50 (C. lagenarium; [1]) | IC50 (C. lagenarium; [2]) | IC50 (C. lagenarium; [3]) | IC50 (B. cinerea) | melting point | IC50 (C. lagenarium; [4]) | IC50 (C. lagenarium; [5])
1 | C=C1CC(c2ccc(O)cc2)OC1=O (stereo not shown) [Compound 4, 4-(4-Hydroxyphenyl)-2-methylenebutyrolactone] | 23.3 µM | 161 µM | 161 µM | 161 µM | 208 µM | 79 to 81 °C | – | –
2 | C=C1CC(c2ccc(OC(=O)c3cccc(Cl)c3)cc2)OC1=O (stereo not shown) [Compound 4b, 4-[4-(3-Chlorobenzoyloxy)phenyl]-2-methylenebutyrolactone] | 22.4 µM | 8.99 µM | 8.99 µM | 8.99 µM | 22.1 µM | 168.8 to 169.2 °C | 8.99 µM | 8.99 µM
3 | C=C1CC(c2ccc(OC(=O)c3cccc(Br)c3)cc2)OC1=O (stereo not shown) [Compound 4e, 4-[4-(3-Bromobenzoyloxy)phenyl]-2-methylenebutyrolactone] | 21.7 µM | 8.77 µM | 8.76 µM | 8.76 µM | 30.2 µM | 176.5 to 176.8 °C | 8.77 µM | 8.77 µM
4 | C=C1CC(c2ccc(OC(=O)c3cccc(C#N)c3)cc2)OC1=O (stereo not shown) [Compound 4g, 4-[4-(3-Benzonitrile)phenyl]-2-methylenebutyrolactone] | 18.3 µM | 52.8 µM | 52.9 µM | 52.9 µM | 60.6 µM | – | 52.8 µM | 52.8 µM
5 | C=C1CC(c2ccc(OC(=O)c3ccccc3)cc2)OC1=O (stereo not shown) [Compound 4i, 4-(4-Benzoyloxyphenyl)-2-methylenebutyrolactone] | 5.3 µM | 95.3 µM | 95.4 µM | 95.4 µM | 112 µM | 223.3 to 223.7 °C | 95.3 µM | 95.3 µM
6 | C=C1CC(c2ccc(OC(=O)c3cccc(C)c3)cc2)OC1=O (stereo not shown) [Compound 4k, 4-[4-(3-Methylbenzoyloxy)phenyl]-2-methylenebutyrolactone] | 28.5 µM | 178 µM | 178 µM | 178 µM | 193 µM | 186.2 to 186.6 °C | 178 µM | 178 µM
7 | C=C1CC(c2ccc(OC(=O)c3ccc(OC)cc3)cc2)OC1=O (stereo not shown) [Compound 4o, 4-[4-(4-Methoxylbenzoyloxy)phenyl]-2-methylenebutyrolactone] | 25 µM | 219 µM | 219 µM | 219 µM | 231 µM | 184.5 to 185.2 °C | 219 µM | 219 µM
8 | C=C1CC(c2ccc(OC(=O)CC)cc2)OC1=O (stereo not shown) [Compound 4p, 4-[4-(Propionyloxy)phenyl]-2-methylenebutyrolactone] | 19.5 µM | 207 µM | 207 µM | 207 µM | 237 µM | – | 207 µM | 207 µM
9 | C=C1CC(c2ccc(OC(=O)C=Cc3ccc(O)c(OC)c3)cc2)OC1=O (stereo not shown) [Compound 4q] | 27.3 µM | 8.93 µM | 8.93 µM | 8.93 µM | 21.5 µM | – | – | 8.93 µM
10 | C=C1CC(c2ccccc2OC(=O)c2cccc(Cl)c2)OC1=O (stereo not shown) [Compound 5a, 4-[2-(3-Chlorobenzoyloxy)phenyl]-2-methylenebutyrolactone] | 28.4 µM | 16.8 µM | 16.8 µM | 16.8 µM | 30.6 µM | 201.3 to 201.8 °C | 16.8 µM | 16.8 µM
11 | C=C1CC(c2ccccc2OC(=O)c2cccc(Br)c2)OC1=O (stereo not shown) [Compound 5d, 4-[2-(3-Bromobenzoyloxy)phenyl]-2-methylenebutyrolactone] | 35.6 µM | 13.4 µM | 13.4 µM | 13.4 µM | 22.9 µM | 189.7 to 190.4 °C | 13.4 µM | 13.4 µM
12 | C=C1CC(c2ccccc2OC(=O)c2cccc(C)c2)OC1=O (stereo not shown) [Compound 5i, 4-[2-(3-Methylbenzoyloxy)phenyl]-2-methylenebutyrolactone] | 85.2 µM | 182 µM | 182 µM | 182 µM | 194 µM | 179.3 to 179.9 °C | 182 µM | 182 µM
13 | C=C1CC(c2ccccc2OC(=O)c2cccc(OC)c2)OC1=O (stereo not shown) [Compound 5l, 4-[2-(3-Methoxylbenzoyloxy)phenyl]-2-methylenebutyrolactone] | 29 µM | 284 µM | 284 µM | 284 µM | 303 µM | 180.3 to 180.8 °C | 284 µM | 284 µM
14 | C=C1CC(c2ccccc2OC(=O)CCC)OC1=O (stereo not shown) [Compound 5m, 4-[2-(Butyryloxy)phenyl]-2-methylenebutyrolactone] | 23.8 µM | 174 µM | 174 µM | 174 µM | 206 µM | – | 174 µM | 174 µM
15 | C=C1CC(c2ccccc2OCCC)OC1=O (stereo not shown) [Compound 5p, 4-(2-Propoxylphenyl)-2-methylenebutyrolactone] | > 132 µM | 499 µM | 499 µM | 499 µM | 525 µM | – | 499 µM | 499 µM
16 | C=C1CC(c2ccccc2OCC)OC1=O (stereo not shown) [Compound 5r, 4-(2-Ethoxyphenyl)-2-methylenebutyrolactone] | 38.4 µM | 520 µM | 519 µM | 519 µM | 549 µM | – | 520 µM | 520 µM
17 | C=C1CC(c2cccc(OC(=O)c3ccc(Cl)cc3)c2)OC1=O (stereo not shown) [Compound 6b, 4-[3-(4-Chlorobenzoyloxy)phenyl]-2-methylenebutyrolactone] | – | 9.25 µM | – | 9.24 µM | 29.1 µM | 209.8 to 210.5 °C | 9.25 µM | 9.25 µM
18 | C=C1CC(c2cccc(OC(=O)c3ccccc3Br)c2)OC1=O (stereo not shown) [Compound 6c, 4-[3-(2-Bromobenzoyloxy)phenyl]-2-methylenebutyrolactone] | – | 10.3 µM | – | 10.3 µM | 27.4 µM | 175.3 to 175.8 °C | 10.3 µM | 10.3 µM
19 | C=C1CC(c2cccc(OC(=O)c3ccc(Br)cc3)c2)OC1=O (stereo not shown) [Compound 6e, 4-[3-(4-Bromobenzoyloxy)phenyl]-2-methylenebutyrolactone] | – | 9.71 µM | – | 9.7 µM | 27.2 µM | 168.6 to 169.4 °C | 9.71 µM | 9.71 µM
20 | C=C1CC(c2cccc(OC(=O)c3cccc(C)c3)c2)OC1=O (stereo not shown) [Compound 6h, 4-[3-(3-Methylbenzoyloxy)phenyl]-2-methylenebutyrolactone] | – | 126 µM | – | 126 µM | 148 µM | 177.6 to 178.2 °C | 126 µM | 126 µM
21 | C=C1CC(c2cccc(OC(=O)c3ccc(C)cc3)c2)OC1=O (stereo not shown) [Compound 6i, 4-[3-(4-Methylbenzoyloxy)phenyl]-2-methylenebutyrolactone] | – | 136 µM | – | 137 µM | 164 µM | 168.5 to 168.9 °C | 136 µM | 136 µM
22 | C=C1CC(c2cccc(OC(=O)c3ccccc3OC)c2)OC1=O (stereo not shown) [Compound 6j, 4-[3-(2-Methoxylbenzoyloxy)phenyl]-2-methylenebutyrolactone] | – | 162 µM | – | 162 µM | 196 µM | 172.3 to 172.8 °C | 162 µM | 162 µM
23 | C=C1CC(c2cccc(OC(=O)c3cccc(OC)c3)c2)OC1=O (stereo not shown) [Compound 6k, 4-[3-(3-Methoxybenzoyloxy)phenyl]-2-methylenebutyrolactone] | – | 136 µM | – | 136 µM | 161 µM | 183.7 to 184.2 °C | 136 µM | 136 µM
24 | C=C1CC(c2cccc(OC(=O)C=Cc3ccccc3)c2)OC1=O (stereo not shown) [Compound 6n, 4-(3-Cinnamoyloxyphenyl)-2-methylenebutyrolactone] | 15.7 µM | 24.3 µM | 24.2 µM | 24.2 µM | 40.3 µM | – | 24.3 µM | 24.3 µM
25 | C=C1CC(c2cccc(OCCCC)c2)OC1=O (stereo not shown) [Compound 6o, 4-(3-Butoxyphenyl)-2-methylenebutyrolactone] | > 108 µM | 242 µM | 242 µM | 242 µM | 280 µM | – | 242 µM | 242 µM
